As usually defined, the Ki is the dissociation constant of the complex between target and ligand, obtained from inhibition or displacement.

The source of these data is patent US20230293517A1, “ANTAGONIST COMPOUNDS” (AdoRx Therapeutics Limited, priority 2020, published 2023).

Read-outs that look alike come from different tables or passages of the source.

Experiment [1] has as its target human Adenosine A1 receptor (Homo sapiens (Human), UniProt P30542). As to the kind of experiment: Adenosine receptor TR-FRET binding assay (A1). The following applies: inhibition of binding of 100 nM CA200645, CHO cell membranes. In short, it runs like this:
(§1)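 In this homogeneous assay, test compounds compete with tracer CA200645 for Tb-labelled human adenosine receptors expressed in CHO cell membranes over 2 h at room temperature. Tracer levels differ by subtype: 30 nM for A2b, 100 nM for A1, A2a and A3. Specific FRET signal yields IC50, converted to Ki.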
(In TR-FRET formats the signal depends on donor and acceptor labels being close together.)

Experiment [2] deals with human Adenosine A2a receptor (Homo sapiens (Human), UniProt P29274). As to the kind of experiment: Adenosine receptor TR-FRET binding assay (A2a). To be noted: inhibition of binding of 100 nM CA200645, CHO cell membranes. In short, it runs like this:
as §1

The target in experiment [3] is human Adenosine A2b receptor (Homo sapiens (Human), UniProt P29275). As to the kind of experiment: Adenosine receptor TR-FRET binding assay (A2b). In short, it runs like this:
as §1

In experiment [4] the target is human Adenosine A3 receptor (Homo sapiens (Human), UniProt P0DMS8). Kind of experiment: Adenosine receptor TR-FRET binding assay (A3). The following applies: inhibition of binding of 100 nM CA200645, CHO cell membranes. The essentials:
as §1

The mark [5] stands for this setting: TR-FRET, inhibition of binding of 30 nM CA200645, CHO cell membranes.

Chain of human Adenosine A2b receptor (P29275 whole entry): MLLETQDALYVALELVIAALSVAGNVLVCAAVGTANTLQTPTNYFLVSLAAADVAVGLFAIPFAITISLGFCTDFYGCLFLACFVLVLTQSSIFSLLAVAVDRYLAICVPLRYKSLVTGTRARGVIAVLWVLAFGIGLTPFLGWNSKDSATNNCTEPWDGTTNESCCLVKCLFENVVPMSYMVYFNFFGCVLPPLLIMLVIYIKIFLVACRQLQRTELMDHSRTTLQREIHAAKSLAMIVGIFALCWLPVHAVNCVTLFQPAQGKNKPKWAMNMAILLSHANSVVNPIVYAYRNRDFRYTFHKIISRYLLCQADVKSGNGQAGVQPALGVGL
Chain of human Adenosine A1 receptor (P30542 whole entry): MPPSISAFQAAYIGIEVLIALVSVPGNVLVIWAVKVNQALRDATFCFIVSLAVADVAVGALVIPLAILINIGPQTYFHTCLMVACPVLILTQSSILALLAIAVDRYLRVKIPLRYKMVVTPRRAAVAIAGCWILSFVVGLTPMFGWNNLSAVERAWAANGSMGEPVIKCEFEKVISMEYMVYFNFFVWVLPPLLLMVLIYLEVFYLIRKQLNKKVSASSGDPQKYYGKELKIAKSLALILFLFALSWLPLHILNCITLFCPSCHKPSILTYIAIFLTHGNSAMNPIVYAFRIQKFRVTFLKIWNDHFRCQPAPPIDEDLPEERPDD
Chain of human Adenosine A3 receptor (P0DMS8 whole entry): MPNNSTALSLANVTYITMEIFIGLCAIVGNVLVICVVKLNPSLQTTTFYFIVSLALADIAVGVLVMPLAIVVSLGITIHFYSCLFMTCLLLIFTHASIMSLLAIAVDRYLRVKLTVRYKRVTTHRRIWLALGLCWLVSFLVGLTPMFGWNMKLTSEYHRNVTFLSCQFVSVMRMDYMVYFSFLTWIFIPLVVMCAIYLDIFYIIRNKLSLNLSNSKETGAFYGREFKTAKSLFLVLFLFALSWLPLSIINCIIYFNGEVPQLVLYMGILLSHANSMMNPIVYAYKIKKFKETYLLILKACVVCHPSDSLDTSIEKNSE
Chain of human Adenosine A2a receptor (P29274 whole entry): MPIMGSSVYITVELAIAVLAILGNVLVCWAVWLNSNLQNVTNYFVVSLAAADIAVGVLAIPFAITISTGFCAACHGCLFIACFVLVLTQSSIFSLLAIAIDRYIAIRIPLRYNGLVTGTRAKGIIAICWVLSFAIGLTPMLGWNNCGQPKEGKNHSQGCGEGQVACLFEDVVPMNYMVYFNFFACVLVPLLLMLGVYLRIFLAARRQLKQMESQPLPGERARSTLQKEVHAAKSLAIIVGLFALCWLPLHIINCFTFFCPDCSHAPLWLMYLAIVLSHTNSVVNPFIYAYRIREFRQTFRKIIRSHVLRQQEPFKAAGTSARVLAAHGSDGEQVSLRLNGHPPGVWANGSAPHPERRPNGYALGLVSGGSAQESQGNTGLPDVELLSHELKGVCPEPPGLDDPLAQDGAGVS

In the case of `Cc1cc(-c2sc(NC(=O)N3CCC[C@@H]3C(C)(C)O)nc2-c2cccc(C#N)c2)cc(Cl)n1` [Example 3, (2R)—N-[5-(2-Chloro-6-methyl-4-pyridyl)-4-(3-cyanophenyl)thiazol-2-yl]-2-(1-hydroxy-1-methyl-ethyl)pyrrolidine-1-carboxamide], the Ki in experiment [1] is 1000 nM; in experiment [2], 58.2 nM; in experiment [3] (setting [5]) it was 50.6 nM; in experiment [4] it was 1980 nM.

Consider `Cc1cc(-c2sc(NC(=O)N3CCN(CCO)C(=O)C3)nc2-c2cccc(C#N)c2)cc(C)n1` [Example 4.31, N-[4-(3-Cyanophenyl)-5-(2,6-dimethyl-4-pyridyl)thiazol-2-yl]-4-(2-hydroxyethyl)-3-oxo-piperazine-1-carboxamide], for which the Ki is 210 nM in experiment [1], 3.75 nM in experiment [2], 4.7 nM in experiment [3] (setting [5]) and 425 nM in experiment [4].

As to `CC(=O)NCc1cc(-c2sc(NC(=O)N3CC4(COC4)C3)nc2-c2cccc(C#N)c2)cc(C)n1` [Example 20, N-[5-[2-(Acetamidomethyl)-6-methyl-4-pyridyl]-4-(3-cyanophenyl)thiazol-2-yl]-2-oxa-6-azaspiro[3.3]heptane-6-carboxamide], the Ki in experiment [1] was found to be 133 nM; in experiment [2], 6.85 nM; in experiment [3] (setting [5]), 39.1 nM; in experiment [4] it was 2540 nM.

`Cc1cc(-c2sc(NC(=O)N3CC4(CCOC(=O)N4)C3)nc2-c2cccc(C#N)c2)cc(C)n1` [Example 6.34, N-[4-(3-Cyanophenyl)-5-(2,6-dimethyl-4-pyridyl)thiazol-2-yl]-6-oxo-7-oxa-2,5-diazaspiro[3.5]nonane-2-carboxamide]: the Ki in experiment [1] was 26 nM; in experiment [2], 0.64 nM; in experiment [3] (setting [5]), 2.1 nM; in experiment [4] it was 166 nM.

For the compound `Cc1cc(-c2sc(NC(=O)N3CC4CCC(C3)N4)nc2-c2cccc(C#N)c2)cc(C)n1` [Example 13.11, N-[4-(3-Cyanophenyl)-5-(2,6-dimethyl-4-pyridyl)thiazol-2-yl]-3,8-diazabicyclo[3.2.1]octane-3-carboxamide], the inhibitory constant (Ki) in experiment [1] was 132 nM; in experiment [2], 12.9 nM; in experiment [3] (setting [5]), 58.4 nM; in experiment [4], 226 nM.

With `Cc1cc(-c2sc(NC(=O)N3C[C@@H]4OCCN(C)[C@H]4C3)nc2-c2cccc(C#N)c2)cc(C(F)F)n1` (racemic) [Example 6.109, rac-(4aS,7aS)-N-[4-(3-Cyanophenyl)-5-[2-(difluoromethyl)-6-methyl-4-pyridyl]thiazol-2-yl]-4-methyl-2,3,4a,5,7,7a-hexahydropyrrolo[3,4-b][1,4]oxazine-6-carboxamide], the inhibitory constant (Ki) in experiment [1] was 471 nM; in experiment [2], 10.8 nM; in experiment [3], 45.5 nM; in experiment [4] it was 298 nM.

Turning to `Cc1cc(-c2sc(NC(=O)N3CCN4CCNC(=O)C4C3)nc2-c2cccc(C#N)c2)cc(C)n1` (centres unmarked) [Example 6.16, N-[4-(3-Cyanophenyl)-5-(2,6-dimethyl-4-pyridyl)thiazol-2-yl]-9-oxo-3,4,6,7,8,9a-hexahydro-1H-pyrazino[1,2-a]pyrazine-2-carboxamide], the Ki was 422 nM in experiment [1], 3.99 nM in experiment [2], 17.6 nM in experiment [3] (setting [5]) and 565 nM in experiment [4].

In the case of `CCN1CCN(C(=O)Nc2nc(-c3cccc(C#N)c3)c(-c3cc(C)nc(C)c3)s2)CC1` [Example 6.60, N-[4-(3-Cyanophenyl)-5-(2,6-dimethyl-4-pyridyl)thiazol-2-yl]-4-ethyl-piperazine-1-carboxamide], the inhibition constant (Ki) in experiment [1] was found to be 185 nM; in experiment [2], 3.09 nM; in experiment [3] (setting [5]), 6.2 nM; in experiment [4], 455 nM.

For `CNC(=O)C1CCN(C(=O)Nc2nc(-c3cccc(C#N)c3)c(-c3cc(C)nc(C)c3)s2)CC1` [Example 6.28, N1-[4-(3-Cyanophenyl)-5-(2,6-dimethyl-4-pyridyl)thiazol-2-yl]-N4-methyl-piperidine-1,4-dicarboxamide], the Ki came to 32 nM in experiment [1], 4.84 nM in experiment [2], 3.2 nM in experiment [3] (setting [5]) and 226 nM in experiment [4].

In the case of `Cc1cc(-c2sc(NC(=O)N3CC(=O)N4CCCCC4C3)nc2-c2cccc(C#N)c2)cc(C)n1` (centres unmarked) [Example 6.15, N-[4-(3-Cyanophenyl)-5-(2,6-dimethyl-4-pyridyl)thiazol-2-yl]-4-oxo-3,6,7,8,9,9a-hexahydro-1H-pyrido[1,2-a]pyrazine-2-carboxamide], the Ki came out at 263 nM in experiment [1], 2.02 nM in experiment [2], 5.9 nM in experiment [3] (setting [5]) and 259 nM in experiment [4].

On to `COc1cc(-c2sc(NC(=O)N3CC[S+]([O-])CC3)nc2-c2cccc(C#N)c2)cc(C)n1` [Example 16.3], for which the inhibition constant Ki stood at 82 nM in experiment [1], 5.71 nM in experiment [2], 6.2 nM in experiment [3] (setting [5]) and 383 nM in experiment [4].

On to `Cc1cc(-c2sc(NC(=O)N3CCC34COC4)nc2-c2cccc(C#N)c2)cc(C)n1` [Example 6.87, N-[4-(3-Cyanophenyl)-5-(2,6-dimethyl-4-pyridyl)thiazol-2-yl]-6-oxa-1-azaspiro[3.3]heptane-1-carboxamide], for which the inhibition constant Ki stood at 57 nM in experiment [1], 1.75 nM in experiment [2], 6.7 nM in experiment [3] (setting [5]) and 37 nM in experiment [4].

`Cc1cc(-c2sc(NC(=O)N3C[C@@H]4CNC(=O)[C@@H]4C3)nc2-c2cccc(C#N)c2)cc(C)n1` [Example 6.52, (3aS,6aS)-N-[4-(3-Cyanophenyl)-5-(2,6-dimethyl-4-pyridyl)thiazol-2-yl]-3-oxo-1,2,3a,4,6,6a-hexahydropyrrolo[3,4-c]pyrrole-5-carboxamide]: the inhibition constant (Ki) in experiment [1] is 120 nM; in experiment [2], 4.3 nM; in experiment [3] (setting [5]), 8.6 nM; in experiment [4], 238 nM.

`Cc1cc(-c2sc(NC(=O)N3CCC4(CC3)CNC4=O)nc2-c2cccc(C#N)c2)cc(CO)n1` [Example 9.1]: the inhibition constant (Ki) amounted to 95 nM in experiment [1], 0.78 nM in experiment [2], 7 nM in experiment [3] (setting [5]) and 1000 nM in experiment [4].

Regarding `COC(=O)[C@H]1CN(C(=O)Nc2nc(-c3cccc(C#N)c3)c(-c3cc(C)nc(Cl)c3)s2)CCN1` [Example 5.1, Methyl (2R)-4-[[5-(2-chloro-6-methyl-4-pyridyl)-4-(3-cyanophenyl)thiazol-2-yl]carbamoyl]piperazine-2-carboxylate], the inhibition constant Ki in experiment [1] came out at 45 nM; in experiment [2], 0.62 nM; in experiment [3] (setting [5]), 1.6 nM; in experiment [4] it was 229 nM.

Turning to `Cc1cc(-c2sc(NC(=O)N3CC[C@H]3C)nc2-c2cccc(C#N)c2)cc(C)n1` [Example 6.78, (2R)-N-[4-(3-Cyanophenyl)-5-(2,6-dimethyl-4-pyridyl)thiazol-2-yl]-2-methyl-azetidine-1-carboxamide], the Ki worked out at 24 nM in experiment [1], 0.67 nM in experiment [2], 0.9 nM in experiment [3] (setting [5]) and 37 nM in experiment [4].

On to `Cc1cc(-c2sc(NC(=O)N3CCNC[C@H]3CO)nc2-c2cccc(C#N)c2)cc(C)n1` [Example 13.6, (2S)-N-[4-(3-Cyanophenyl)-5-(2,6-dimethyl-4-pyridyl)thiazol-2-yl]-2-(hydroxymethyl)piperazine-1-carboxamide], for which the Ki turned out to be 220 nM in experiment [1], 16.8 nM in experiment [2], 79.7 nM in experiment [3] (setting [5]) and 133 nM in experiment [4].

As to `Cc1cc(-c2sc(NC(=O)N3CCN[C@H](C(F)(F)F)C3)nc2-c2cccc(C#N)c2)cc(C)n1` [Example 13.10, (3S)-N-[4-(3-Cyanophenyl)-5-(2,6-dimethyl-4-pyridyl)thiazol-2-yl]-3-(trifluoromethyl)piperazine-1-carboxamide], the Ki in experiment [1] worked out at 61 nM; in experiment [2], 4.56 nM; in experiment [3] (setting [5]) it was 14.5 nM; in experiment [4] it was 573 nM.

With `Cc1cc(-c2sc(NC(=O)N3CC[S+]([O-])CC3)nc2-c2cccc(C#N)c2)cc(C(F)F)n1` [Example 6.19, N-[4-(3-Cyanophenyl)-5-[2-(difluoromethyl)-6-methyl-4-pyridyl]thiazol-2-yl]-1-oxo-1,4-thiazinane-4-carboxamide], the Ki was 20 nM in experiment [1], 0.61 nM in experiment [2], 1.1 nM in experiment [3] (setting [5]) and 130 nM in experiment [4].

In the case of `Cc1cc(-c2sc(NC(=O)N3CCC(c4ncno4)CC3)nc2-c2cccc(C#N)c2)cc(C)n1` [Example 6.31, N-[4-(3-Cyanophenyl)-5-(2,6-dimethyl-4-pyridyl)thiazol-2-yl]-4-(1,2,4-oxadiazol-5-yl)piperidine-1-carboxamide], the Ki in experiment [1] stood at 19 nM; in experiment [2], 1.5 nM; in experiment [3] (setting [5]), 2.1 nM; in experiment [4], 186 nM.

As to `Cc1cc(-c2sc(NC(=O)N3CCC(C#N)CC3)nc2-c2cccc(C#N)c2)cc(CO)n1` [Example 9.6], the inhibitory constant (Ki) was determined as 12 nM in experiment [1], 0.51 nM in experiment [2], 2.9 nM in experiment [3] (setting [5]) and 369 nM in experiment [4].

As to `Cc1cc(-c2sc(NC(=O)N3CCC(C)(C#N)C3)nc2-c2cccc(C#N)c2)cc(C2COC2)n1` (centres unmarked) [Example 6.110, 3-Cyano-N-[4-(3-cyanophenyl)-5-[2-methyl-6-(oxetan-3-yl)-4-pyridyl]thiazol-2-yl]-3-methyl-pyrrolidine-1-carboxamide], the Ki in experiment [1] is 13 nM; in experiment [2], 0.26 nM; in experiment [3] (setting [5]) it was 3.6 nM; in experiment [4] it was 956 nM.

On to `COC(C)c1cc(-c2sc(NC(=O)N3CC4(COC4)C3)nc2-c2cccc(C#N)c2)cc(C)n1` (centres unmarked) [Example 22, N-[4-(3-Cyanophenyl)-5-[2-(1-methoxyethyl)-6-methyl-4-pyridyl]thiazol-2-yl]-2-oxa-6-azaspiro[3.3]heptane-6-carboxamide], for which the inhibition constant (Ki) in experiment [1] turned out to be 7 nM; in experiment [2], 0.2 nM; in experiment [3] (setting [5]), 3.2 nM; in experiment [4], 2060 nM.
